Experimental data from US20240287036A1, “COMPOUNDS USEFUL IN THE TREATMENT OR PREVENTION OF A PRMT5-MEDIATED DISORDER” (ARGONAUT THERAPEUTICS LIMITED, priority 2021, published 2024).

Legend:
[1] = Hepatocyte stability assay (Human Hep Clint); format: in vitro ADME; settings: cryopreserved pooled human hepatocytes, 0.5 × 10^6 cells/mL, 1 μM test compound, up to 90 min
Experimental: The activity of the compounds was tested using several industry accepted methods. These included methods to measure the human hepatocyte clearance values (Human Hep Clint) and a PRMT5 assay. The methods that were used were conventional.
Cell viability was tested by trypan blue exclusion after thawing.
Thawing Medium: Williams' Medium E containing 5% fetal bovine serum and 30% Percoll solution and other supplements.
Incubation Medium: Williams' Medium E (no phenol red) containing 2 mM L-Glutamine and 25 mM HEPES.
Stop Solution: Acetonitrile containing 200 ng/ml tolbutamide and labetalol as internal standards.
The following steps were performed. • 1. 10 mM test compounds were provided by Compound Sample Group. • 2. 30 mM positive control stock solutions: Dissolved accurate amount of positive control compounds in dimethyl sulfoxide (DMSO). • 3. 1000× Stock Solution: Diluted 10 mM test compounds and 30 mM positive control compounds to 1 mM and 3 mM with DMSO in 96-well plates. • 4. 100× Dosing Solution: Diluted 1 mM test compounds and 3 mM positive control compounds to 100 µM and 300 µM dosing solutions with ACN. • 5. Preparation of 0.5×10^6/mL cells suspension: cryopreserved cells were thawed, isolated and suspended in Incubation Medium, then diluted with pre-warmed Incubation Medium to 0.5×10^6 cells/mL. • 6. Add 198 μL of pre-warmed cell suspensions in 96-well plates. • 7. Preparation of Quenching Plate: Transfer 125 μL of stop solution (acetonitrile containing 200 ng/ml tolbutamide and 200 ng/ml labetalol as internal standards) in a set of pre-labelled 96-well plates. • 8. Spike 2 μL dosing solution to each well of 96-well plates in duplicates. • 9. For T0 Samples, mix to achieve a homogenous suspension for about 1 min, then immediately transfer 25 μL of each sample into well containing 125 μL of ice-cold stop solution followed by mixing. • 10. Incubate all plates at 37° ° C. in a 95% humidified incubator at 5% CO2 to start the reactions with constant shaking at about 600 rpm. • 11. At 15, 30, 60 and 90 min, mix samples and then transfer 25 μL of each sample at each time point to well containing 125 μL of ice-cold stop solution followed by mixing. • 12. Medium Control (MC) sample plates (labelled as T0-MC and T90-MC) are prepared at TO and T90 by adding the same components to each well except cell suspensions. • 13. At each corresponding time point, stop the reactions by removing the plates from incubator and mixing with 125 μL of ice-cold stop solution. • 14. Vortex the plates immediately on a plate shaker at 500 rpm for 10 minutes. Then, centrifuge all sample plates at 3220× g for 20 min at 4° C. • 15. After centrifugation, 80 μL/well of supernatant in the sample plates are transferred to another set of pre-labelled 96-well plates which containing 240 μL of ultra pure water according to the plate map. • 16. Analytical plates are sealed and store at 4° C. until LC-MS/MS analysis.
The remaining percents of test articles after incubation were calculated by the follow equations: […]
Use equation of first order kinetics to calculate t1/2 and CLint. Equation of first order kinetics:
[formula] [formula] CLint (hep)=k/million cells per mL
CLint (liver)=CLint (hep)·liver weight (g/kg body weight)*hepatocellularity

human PRMT5/MEP50 = target: T1, human PRMT5/MEP50 (Homo sapiens, UniProt O14744); experiment: PRMT5 chemiluminescent assay; format: biochemical; settings: human PRMT5/MEP50 expressed in HEK293 cells, biotinylated histone peptides, 60 min reaction; read-out: PRMT5 pIC50 (converted)
T1 construct: host or cells: HEK293 cells
T1 sequence (O14744 whole entry): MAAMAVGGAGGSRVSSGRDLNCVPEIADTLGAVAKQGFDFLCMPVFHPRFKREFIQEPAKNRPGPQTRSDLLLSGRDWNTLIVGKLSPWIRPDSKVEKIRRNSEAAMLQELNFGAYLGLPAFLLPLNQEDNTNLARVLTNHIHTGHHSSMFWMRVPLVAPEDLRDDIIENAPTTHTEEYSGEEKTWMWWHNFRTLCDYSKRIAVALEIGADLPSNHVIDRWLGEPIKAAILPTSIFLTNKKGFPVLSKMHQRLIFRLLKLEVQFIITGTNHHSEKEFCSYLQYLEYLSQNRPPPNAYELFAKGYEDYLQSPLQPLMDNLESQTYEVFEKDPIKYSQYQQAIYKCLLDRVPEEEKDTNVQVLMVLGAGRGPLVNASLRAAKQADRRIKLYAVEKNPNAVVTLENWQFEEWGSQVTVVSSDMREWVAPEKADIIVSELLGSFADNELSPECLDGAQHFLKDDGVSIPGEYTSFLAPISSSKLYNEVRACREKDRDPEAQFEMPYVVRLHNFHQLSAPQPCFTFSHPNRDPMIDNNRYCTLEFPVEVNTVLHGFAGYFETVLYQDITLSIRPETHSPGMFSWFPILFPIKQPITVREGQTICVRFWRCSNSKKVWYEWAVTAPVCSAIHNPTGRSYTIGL
T1 sequence (Q9BQA1 whole entry partner): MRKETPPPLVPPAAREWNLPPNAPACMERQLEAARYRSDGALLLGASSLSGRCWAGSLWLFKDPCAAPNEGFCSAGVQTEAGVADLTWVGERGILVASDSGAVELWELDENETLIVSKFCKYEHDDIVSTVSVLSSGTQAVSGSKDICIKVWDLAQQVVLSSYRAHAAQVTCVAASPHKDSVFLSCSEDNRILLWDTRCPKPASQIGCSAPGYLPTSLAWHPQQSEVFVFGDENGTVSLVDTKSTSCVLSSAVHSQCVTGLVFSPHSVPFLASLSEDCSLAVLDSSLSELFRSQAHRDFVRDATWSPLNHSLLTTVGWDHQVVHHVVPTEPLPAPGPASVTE
Experimental: A PRMT5 chemiluminescent assay was used to measure the IC50 activity of PRMT5 of the compounds of CEx and Examples 1 to 8 above. Biotinylated histone peptides were synthesized and attached to 384-well plates. Compound serial dilutions were performed and added to the assay plate. Histone H4 monomethyl R^3 antibody was obtained from Abcam. A master mix for each well was prepared and human PRMT5/MEP50 (expressed in HEK293 cells) diluted in assay buffer to a concentration of 5 ng/μL. The reaction was incubated and slowly rotated for 60 minutes at the point of PRMT5/MEP50 addition. The supernatant from the wells was removed and blocking buffer was added to each well and rotated for 10 minutes. The primary antibody was diluted and added to every well for 60 minutes, before it was removed and the wells washed. The horse radish peroxidase (HRP)-coupled secondary antibody was diluted and added to each well with an incubation time of 30 minutes. The HRP chemiluminescent substrate was added to every well. The plate was read on a Flourstar Omega BMG Labtech instrument (Ortenberg, Germany) and the analysis of IC50 was performed using the Flourstar Omega BMG Labtech software.

SMILES	hepatocyte CLint at 1 μM [1]	IC50 (human PRMT5/MEP50)
O=C(NC[C@H](O)CN1CCc2ccccc2C1)N1CCC[C@@H](c2ccccc2)C1 [CEx, reference compound]	54.1 µL/min/1e6 cells	12.6 nM
O=C(NC[C@H](O)CN1CCc2ccccc2C1)N1CCC[C@@H](N2CCCC2=O)C1 [Ex. 1, (R)—N—((S)-3-(3,4-dihydroisoquinolin-2(1H)-yl)-2-hydroxypropyl)-3-(2-oxopyrrolidin-1-yl)piperidine-1-carboxamide]	1.7 µL/min/1e6 cells	50.1 nM
O=C(NC[C@H](O)CN1CCc2ccccc2C1)N1CCC[C@@H](N2CCCCC2=O)C1 [Ex. 2, (R)—N—((S)-3-(3,4-dihydroisoquinolin-2(1H)-yl)-2-hydroxypropyl)-2-oxo-[1,3′-bipiperidine]-1′-carboxamide]	< 3 µL/min/1e6 cells	15.8 nM
CC1CCC(=O)N([C@@H]2CCCN(C(=O)NC[C@H](O)CN3CCc4ccccc4C3)C2)C1 (stereo partly drawn) [Ex. 3, (3′R)—N—((S)-3-(3,4-dihydroisoquinolin-2(1H)-yl)-2-hydroxypropyl)-5-methyl-2-oxo-[1,3′-bipiperidine]-1′-carboxamide]	2.5 µL/min/1e6 cells	31.6 nM
[2H]C1([2H])c2ccccc2CCN1C[C@@H](O)CNC(=O)N1CCC[C@@H](N2CCCCC2=O)C1 [Ex. 4, (R)—N—((S)-3-(3,4-dihydroisoquinolin-2(1H)-yl-1,1-d2)-2-hydroxypropyl)-2-oxo-[1,3′-bipiperidine]-1′-carboxamide]	2.5 µL/min/1e6 cells	31.6 nM
[2H]C1([2H])CN(C[C@@H](O)CNC(=O)N2CCC[C@@H](N3CCCCC3=O)C2)C([2H])([2H])c2ccccc21 [Ex. 5, (R)—N—((S)-3-(3,4-dihydroisoquinolin-2(1H)-yl-1,1,4,4-d4)-2-hydroxypropyl)-2-oxo-[1,3′-bipiperidine]-1′-carboxamide]	–	20 nM
CC1CCCN([C@@H]2CCCN(C(=O)NC[C@H](O)CN3CCc4ccccc4C3)C2)C1=O (stereo partly drawn) [Ex. 6, (3′R)—N—((S)-3-(3,4-dihydroisoquinolin-2(1H)-yl)-2-hydroxypropyl)-3-methyl-2-oxo-[1,3′-bipiperidine]-1′-carboxamide]	< 6 µL/min/1e6 cells	12.6 nM
Cc1ccnn([C@@H]2CCCN(C(=O)NC[C@H](O)CN3CCc4ccccc4C3)C2)c1=O [Ex. 7, (R)—N—((S)-3-(3,4-dihydroisoquinolin-2(1H)-yl)-2-hydroxypropyl)-3-(5-methyl-6-oxopyridazin-1(6H)-yl)piperidine-1-carboxamide]	10.8 µL/min/1e6 cells	7.94 nM
CN1CCCN([C@@H]2CCCN(C(=O)NC[C@H](O)CN3CCc4ccccc4C3)C2)C1=O [Ex. 8, (R)—N—((S)-3-(3,4-dihydroisoquinolin-2(1H)-yl)-2-hydroxypropyl)-3-(3-methyl-2-oxotetrahydropyrimidin-1(2H)-yl)piperidine-1-carboxamide]	< 6.4 µL/min/1e6 cells	12.6 nM
